Reference: paper PMC8490515, “Neuromedin B receptor stimulation of Cav3.2 T-type Ca^2+ channels in primary sensory neurons mediates peripheral pain hypersensitivity” (Theranostics, 2021)
“Also recorded” adds a separate entry of the source. Each block holds one compound with its values, some of them ahead of it.

Experiments:
[1] = target: Human neuromedin B receptor expressed in HEK293 cells (human) (UniProt P28336)
[2] = system: Nmb-induced mechanical hypersensitivity in mice; assay: Nmb-induced mechanical hypersensitivity, effect of pretreatment (Figure 7C); type: in vivo, mouse; details: intra-TG TTA-P2 1 nmol prior to 1 nmol Nmb; 1 h; n = 8 - 10
Procedure: Mice were housed on a 12 h light/dark cycle, maintained in a humidity- and temperature-controlled room with water available ad libitum and were acclimated to the experimenter for 2 d before the first behavioural observations. Experimenters were blinded to the treatment or genotypes of the mice. As described previously, [31], an Orofacial Stimulation Test (Ugo Basile, Italy) was used for the measurement of hypersensitivity to the mechanical stimulation of the trigeminal area. Briefly, the mice initially underwent one week of adaptation trainings after a 12 h fasting food period. Each mouse was then placed in a cage in which there was an Orofacial Stimulation Test system. […] The contact number and total duration of time the mouse spent acquiring the reward were analyzed with the ORO software.
For experiments that several time points are needed to be checked in 24 h, von Frey test was used, as orofacial stimulation test can be checked only once a day, [32]. […] Mechanical hypersensitivity was assessed as described in previous studies, [33]. In brief, the threshold was assessed with a set of von Frey hairs (0.02-2.56 g, Stoelting) applied to the whisker pad in an ascending series of trials, with three separate von Frey stimulations applied per series. The threshold was determined when mice moved their heads away briskly and strongly from at least one of the three stimuli. […]

[3] = system: CFA-induced mechanical allodynia in mice; assay: CFA-induced inflammatory pain, mechanical allodynia; type: in vivo, mouse; details: rofecoxib 10 mg/kg (legend: 1 mg/kg, subcutaneous); 1 h; 2 d after CFA; n = 7 - 9
Procedure: For experiments that several time points are needed to be checked in 24 h, von Frey test was used, as orofacial stimulation test can be checked only once a day, [32]. For the von Frey test, the mice were placed in metal mesh boxes and allowed 30 min for habituation before examination. Mechanical hypersensitivity was assessed as described in previous studies, [33]. In brief, the threshold was assessed with a set of von Frey hairs (0.02-2.56 g, Stoelting) applied to the whisker pad in an ascending series of trials, with three separate von Frey stimulations applied per series. The threshold was determined when mice moved their heads away briskly and strongly from at least one of the three stimuli. Dixon's up-down method was used to determine the 50% probability of escape threshold. For thermal test, a heat stimulus was applied to the maxillary whisker pad skin by radiant heat (IITC Life Science). Heat sensitivity was expressed as head-withdrawal latency (HWL). The radiant heat intensity was adjusted so that basal HWL is between 10-15 s, with a cut-off of 18 s to prevent tissue damage. Chronic inflammatory pain was induced by subcutaneous injection of 20 μL of complete Freund's adjuvant (CFA) into the left side of the buccal pad. […]

Human neuromedin B receptor expressed in HEK293 cells (human), sequence (P28336 whole entry): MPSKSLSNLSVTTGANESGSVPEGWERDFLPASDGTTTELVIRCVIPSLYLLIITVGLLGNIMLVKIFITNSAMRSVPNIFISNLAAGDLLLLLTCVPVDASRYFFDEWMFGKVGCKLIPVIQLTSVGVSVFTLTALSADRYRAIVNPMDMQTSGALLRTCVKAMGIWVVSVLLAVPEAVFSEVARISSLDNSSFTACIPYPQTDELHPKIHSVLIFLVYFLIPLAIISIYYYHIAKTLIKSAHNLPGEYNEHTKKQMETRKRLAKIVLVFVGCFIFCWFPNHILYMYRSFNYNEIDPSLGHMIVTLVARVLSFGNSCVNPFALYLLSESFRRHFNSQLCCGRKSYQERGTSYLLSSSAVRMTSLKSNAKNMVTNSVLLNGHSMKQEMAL

- increase of Cav3.2 channel currents in HEK293 cells co-expressing human NmbR and Cav3.2, whole-cell patch clamp, dose-response of Nmb, EC50 [1]: 47.6 nM
Compound: Neuromedin B (peptide)

Compound: CC1(C)C[C@@H](CN2CCC(F)(CNC(=O)c3cc(Cl)cc(Cl)c3)CC2)CCO1 [TTA-P2]
- effect on Nmb-induced mechanical hypersensitivity [2]: significantly attenuated mechanical hypersensitivity

Compound: CS(=O)(=O)c1ccc(C2=C(c3ccccc3)C(=O)OC2)cc1 [rofecoxib]
- CFA-induced mechanical allodynia [3]: reversed; also recorded: reduced the mechanical allodynia
